Experimental data taken from US5292521A, “Solid oral preparation containing a pyrrolidine derivative with a catechol group” (priority 1990, dated 1994).
Read-outs that look alike come from different tables or passages of the source.

How the values were obtained:
[1] = Oral administration to fasted beagles with ascorbic, citric or tartaric acid, plasma drug disposition parameters (Experimental Example 3); type: in vivo; details: for AUC(0-t) at 6 h / Cmax / Tmax: dog, plasma, po, 3 mg/kg, n=4; for AUC(0-t) at 6 h: read-out: AUC (0-6 hr) mean ± SE; for Cmax: read-out: Cmax mean ± SE; for Tmax: read-out: Tmax mean ± SE (converted)
From the text: Compound (IX) and ascorbic acid, citric acid or tartaric acid were weighed, pulverized thoroughly and mixed together in an agate mortar. The mixture was divided into portions and filled in gelatin capsules (No. 1 or No. 00) and the gap in each capsule was further filled with lactose to obtain a sample. Separately, compound (IX) was formulated into a powder of five-fold dilution with lactose and filled in capsules in a similar manner to that described above to obtain a control sample.
The dose of compound (IX) was adjusted to 3 mg/kg in all the cases, while that of ascorbic acid was adjusted to three levels, i.e. 3 mg/kg, 9 mg/kg and 15 mg/kg and that of each of citric acid and tartaric acid was adjusted to one level of 15 mg/kg.
(§1) (a) Administration and collection of blood sample
The capsule of compound (IX) was given to each of 4 beagles (average body weight 9.53 kg) together with 30 ml of water by oral administration after fasting overnight (14 hours). The experiment was conducted by the crossover administration method while the beagles were kept fasting.
An internal standard substance (IS 50 ng in 50 μl) was added to 1 ml of blood plasma. After extraction with 5 ml of ethyl acetate, the solvent was distilled off. 100 μl of a citrate buffer solution (pH 3.5) was added thereto to form a solution again, which was washed with 1 ml of diethyl ether. The lower layer was separated and 50 μl of methanol was added thereto. 50 to 100 μl thereof was injected into an instrument for high-performance liquid chromatography (HPLC) for determination. Separately, blood plasma containing known amounts of compound (IX) and IS was treated to prepare an addition/recovery calibration curve. The concentration was determined from the ratio of the peak height of compound (IX) to that of IS. The detection limit in this method was 0.2 ng/ml of plasma.
(§2) (c) HPLC determination conditions
A HPLC pump used was CCPD mfd. by Toyo Soda Mfg. Co., Ltd. 1.5 ml/min of a citrate buffer (pH 3.5)/methanol mixture 80:1 (V/V) was introduced therein. The sample was injected into the instrument with a WISP 710B auto-sampler mfd. by Waters at intervals of about 50 minutes. A reversed phase Nucleosil (trade name) 7C6H5 column (4.6×250 mm) with a prefilter was used as the analysis column. The detector used was an ECD-100 electrochemical detector mfd. by Acome. The voltage was +650 mV (against a SEC electrode).
The citrate buffer solution (pH 3.5) was prepared by dissolving 26.25 g of citric acid, 16.58 g of anhydrous sodium acetate, 12.25 g of sodium hydroxide, 0.8375 g of disodium ethylenediaminetetraacetate, 93.8 ml of glacial acetic acid and 35.9 ml of 60% perchloric acid in 2500 ml of distilled water.
The AUC value in the period of 0 to 6 hours was determined from each of these curves. The results are given in FIG. 6, which is a bar graph for the comparison of the AUC values of the respective samples.

[2] = Oral administration to fasted beagles with L-cysteine or L-aspartic acid, plasma drug disposition parameters (Experimental Example 4); type: in vivo; details: for AUC(0-t) at 8 h / Cmax / Tmax: dog, plasma, po, 3 mg/kg; for AUC(0-t) at 8 h: read-out: AUC (0-8 hr) mean ± SE; for Cmax: read-out: Cmax mean ± SE; for Tmax: read-out: Tmax mean ± SE
Procedure: A similar mixture to that described above was prepared except that L-cysteine was replaced by 350 mg of L-aspartic acid.
as §1
An internal standard substance (IS 20 ng in 200 μl) was added to 1 ml of blood plasma. After dilution with 2 ml of water, the aqueous solution was passed through a BONDELUTE (trade name) C18 column previously washed with 3 ml of methanol containing 0.1% of acetic acid and 9 ml of water. After further washing with 9 ml of water and 2 ml of acetonitrile, the sample was eluted with 1.2 ml of methanol containing 0.1% of perchloric acid. The solvent was distilled off and the residue was dissolved in 200 μl of a 0.1% acetic acid aqueous solution/methanol mixture (2/1, V/V). 50 to 100 μl thereof was injected into an instrument for HPLC for determination. Separately, blood plasma containing known amounts of compound (IX) and IS was treated to prepare an addition/recovery calibration curve. The concentration was determined from the ratio of the peak height of compound (IX) to that of IS. The detection limit in this method was 0.05 ng/ml of plasma.
as §2
A HPLC pump used was CCPD mfd. by Toyo Soda Mfg. Co., Ltd. 1.35 ml/min of an aqueous solution containing 0.1% of perchloric acid and 0.01% of a disodium ethylenediaminetetraacetate/methanol mixture 80:9 (V/V) was introduced therein. The sample was injected into the instrument with a WISP 710B auto-sampler mfd. by Waters at intervals of about 50 minutes. A reversed phase ODS-120 T column (4.6×250 mm) with a prefilter was used as the analysis column. The detector used was an ECD-100 electrochemical detector mfd. by Acome. The voltage was +650 mV (against a SEC electrode).

[3] = 3 mg/kg oral + ascorbic acid 3 mg/kg (1:1)
[4] = 3 mg/kg oral + ascorbic acid 9 mg/kg (1:3)
[5] = 3 mg/kg oral + ascorbic acid 15 mg/kg (1:5)
[6] = 3 mg/kg oral + citric acid 15 mg/kg (1:5)
[7] = 3 mg/kg oral + tartaric acid 15 mg/kg (1:5)
[8] = 3 mg/kg oral, no organic acid (control)
[9] = 3 mg/kg oral + L-aspartic acid 15 mg/kg, n=2
[10] = 3 mg/kg oral + L-cysteine 15 mg/kg, n=2
[11] = 3 mg/kg oral, none (control), n=4

Addition effect ratio ([1]; 3 mg/kg oral + ascorbic acid 3 mg/kg (1:1), AUC ratio to no additive): 1.9 | Addition effect ratio ([1]; 3 mg/kg oral + ascorbic acid 9 mg/kg (1:3), AUC ratio to no additive): 4.8 | increase of AUC value vs no added acid ([1]; 3 mg/kg oral + ascorbic acid 15 mg/kg): 7 -fold | Addition effect ratio ([1]; 3 mg/kg oral + ascorbic acid 15 mg/kg (1:5), AUC ratio to no additive): 7.0 | Addition effect ratio ([1]; 3 mg/kg oral + citric acid 15 mg/kg (1:5), AUC ratio to no additive): 3.3 | Addition effect ratio ([1]; 3 mg/kg oral + tartaric acid 15 mg/kg (1:5), AUC ratio to no additive): 2.7 | Addition effect ratio ([1]; 3 mg/kg oral, no organic acid, base): 1.0 | AUC(0-t) at 6 h [1, 3]: 28.4 ± 6.5 ng·h/mL | Cmax [1, 3]: 33.8 ± 13.2 ng/mL | Tmax [1, 3]: 34 min | AUC(0-t) at 6 h [1, 4]: 72.6 ± 18.5 ng·h/mL | Cmax [1, 4]: 187 ± 91.7 ng/mL | Tmax [1, 4]: 43 min | AUC(0-t) at 6 h [1, 5]: 107 ± 14.6 ng·h/mL | Cmax [1, 5]: 139 ± 20.9 ng/mL | Tmax [1, 5]: 55 min | AUC(0-t) at 6 h [1, 6]: 50.7 ± 16.5 ng·h/mL | Cmax [1, 6]: 87.4 ± 30.2 ng/mL | Tmax [1, 6]: 29 min | AUC(0-t) at 6 h [1, 7]: 40.4 ± 7.8 ng·h/mL | Cmax [1, 7]: 61.5 ± 26.3 ng/mL | Tmax [1, 7]: 45 min | AUC(0-t) at 6 h [1, 8]: 15.2 ± 2.8 ng·h/mL | Cmax [1, 8]: 21 ± 5.3 ng/mL | Tmax [1, 8]: 44 min | increase of AUC value vs no added acid ([1]; with citric acid): 3.3 -fold | increase of AUC value vs no added acid ([1]; with tartaric acid): 2.7 -fold | Addition effect (AUC ratio) ([2]; 3 mg/kg oral + L-aspartic acid 15 mg/kg): 2.46 | Addition effect (AUC ratio) ([2]; 3 mg/kg oral + L-cysteine 15 mg/kg): 1.59 | Addition effect (AUC ratio) ([2]; 3 mg/kg oral, none (control)): 1.00 | effect relative to that obtained by adding tartaric acid ([2]; L-cysteine and L-aspartic acid): ~2.7 times | AUC(0-t) at 8 h [2, 9]: 37.5 ± 0.2 ng·h/mL | Cmax [2, 9]: 48.2 ± 2.5 ng/mL | Tmax [2, 9]: 45 ± 15 min | AUC(0-t) at 8 h [2, 10]: 24.4 ± 1 ng·h/mL | Cmax [2, 10]: 15.3 ± 2.7 ng/mL | Tmax [2, 10]: 70.2 ± 50.4 min | Cmax [2, 11]: 21 ± 5.3 ng/mL | Tmax [2, 11]: 43.8 ± 16.8 min | increase of AUC value ([2]; with L-aspartic acid): 2.46 -fold | increase of AUC value ([2]; with L-cysteine): 1.59 -fold
SMILES: Oc1ccc([C@@H]2CNC[C@H]2c2cccc(O)c2Cl)cc1O (relative stereo) [compound (IX)]
